Assay: Example 1.2 solubility improvement for Hydrocortisone with 1,2-alkanediols: visual appearance
Type: physicochemical
Details: 0.2 % Hydrocortisone; 1.0 % 1,2-alkanediol; after 3 days 23° C.
Description: Production method: A premix B was prepared by mixing solvent, solubilizer and diol. Hydrocortisone was added. The mixture was heated to 70° C. to solve the active component while stirring with a magnetic stirrer. The mixture was stirred for further 5 minutes at 70° C. Water was added and the mixture was cooled while stirring (10 min).
The visual appearance of the sample solutions was evaluated according to the following scale:
The images of the sample solutions A (containing 1,2-pentanediol), B (containing 1,2-hexanediol), C (containing 1,2-heptanediol) and D (containing 1,2-octanediol) are shown in FIG. 3.

SMILES	crystallization/sedimentation, transparency, turbidity compared between samples
CCCCCC(O)CO (stereo not drawn) [1,2-heptanediol]	better solubility improving properties

Assay: Example 2 solubility of alkanediols in water (maximum water solubility, visual observation)
Type: physicochemical
Details: assessed at ambient temperature after 24 h storage at 5° C.
Source text: The water solubility of a substance is the saturation mass concentration of the substance in water at a given temperature. The determination of the solubility in water relates to essentially pure substances which are stable in water and not volatile.
For the determination of the maximum water solubility of an alkanediol, water and different concentrations of the respective alkanediol were blended by stirring. […] The determination of whether the alkanediol has dissolved in water is based entirely on visual observation.

SMILES	Maximum solubility in water (% by weight)
CCCCCCCC(O)CO (stereo not drawn) [1,2-nonanediol]	0.1 % by weight
CCCC(O)CO (stereo not drawn) [Hydrolite® 5 green, 1,2-pentanediol]	50 % by weight
CCCCCCC(O)CO (stereo not drawn) [Hydrolite® 8, 1,2-octanediol]	0.5 % by weight
CCCCC(O)C(C)O (stereo not drawn) [2,3-heptanediol]	3.6 % by weight
CCCCCCC(O)C(C)O (stereo not drawn) [2,3-nonanediol]	0.3 % by weight
CCCCC(O)CO (stereo not drawn) [Hydrolite® 6, 1,2-hexanediol]	50 % by weight
CCCCCC(O)CO (stereo not drawn) [1,2-heptanediol]	2.5 % by weight
CCCCCC(O)C(C)O (stereo not drawn) [2,3-octanediol]	1.5 % by weight
